Test results as given in the NIST ThermoML archive (doi:10.1016/j.jct.2016.11.024).
Numbers after ± are expanded uncertainties.

Details: Liquid, Ebulliometric method (Recirculating still)

Row | Structure (SMILES) | vapor or sublimation pressure (389.1 K) | vapor or sublimation pressure (412.93 K) | vapor or sublimation pressure (424.43 K) | vapor or sublimation pressure (356.53 K) | vapor or sublimation pressure (380.5 K) | vapor or sublimation pressure (391.77 K)
1 | CCCCCCCCCC(=O)OC [methyl decanoate] | 2 ± 0.2 kPa | 6 ± 0.61 kPa | 10 ± 1 kPa |  |  | 
2 | CCCCCCCC(=O)OC [methyl octanoate] |  |  |  | 2 ± 0.2 kPa | 6 ± 0.61 kPa | 10 ± 1 kPa
